#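 96-well plates; 48 h exposure; 5 concentrations. Endpoints by linear interpolation between flanking doses. Not reached: highest tested concentration assigned. GI50 marks 50% less growth. TGI is the concentration that stops growth completely.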
# What was measured:
# Assay in all cases: DTP human tumour cell line panel, 48 h
# [1] = tested on: MCF7 breast
# [2] = tested on: HCC-2998 colon
# [3] = tested on: RPMI-8226 leukemia
# [4] = tested on: OVCAR-3 ovarian
# [5] = tested on: MDA-MB-435
# [6] = tested on: HOP-18 NSCLC
# [7] = tested on: TK-10 renal
# [8] = tested on: DMS 273 small cell lung
# [9] = tested on: SF-539 CNS
# [10] = tested on: UACC-257 melanoma
Compound,TGI [1] [µM],TGI [2] [µM],TGI [3] [µM],TGI [4] [µM],TGI [5] [µM],TGI [6] [µM],TGI [7] [µM],TGI [8] [µM],TGI [9] [µM],GI50 [1] [µM],TGI [10] [µM],GI50 [2] [µM],GI50 [3] [µM],GI50 [4] [µM],GI50 [7] [µM],GI50 [5] [µM],GI50 [10] [µM],GI50 [9] [µM],GI50 [6] [µM],GI50 [8] [µM]
c1ccc(N=C2SC(=NC3CCCCC3)N(C3CCCCC3)C2=Nc2ccccc2)cc1,> 100,> 100,> 100,> 100,> 100,–,–,–,–,–,–,–,–,–,–,–,–,–,–,–
COc1ccccc1C1C(C(=O)O)=C(CO)Oc2cc3c(cc21)OCO3 (centres undefined),–,–,> 100,> 100,–,> 100,> 100,> 100,> 100,–,–,–,–,–,–,–,–,–,–,–
Cc1nc(N)sc1-c1ccnc(Nc2ccc(N3CCOCC3)cc2)n1,> 100,> 100,> 38.3,> 100,36.7,–,8.14,–,–,1.43,> 100,11.8,1.66,7.37,1.06,1.86,–,–,–,–
Cc1ccc(S(=O)(=O)Oc2cc(-c3ccccc3)nc3ccccc23)cc1,> 48.4,4.49,7.71,5.73,–,45.8,–,> 28,4.87,–,52.2,–,–,–,–,–,–,–,–,–
CC(=O)OC1CCC2(C)C3CCC4(C)C(c5ccc(=O)oc5)CC5OC54C3CCC2(O)C1 (centres undefined),14.8,14,14.1,2.29,–,7.38,–,6,2.78,–,19.5,–,–,–,–,–,–,–,–,–
COc1ccc(C2CC(c3cccc(Nc4ccncc4)c3)=NN2c2cc(Cl)cc(Cl)c2)cc1 (centres undefined),3.3,2.85,–,3.35,3.32,–,–,–,3.14,1.67,4.92,1.47,–,1.81,–,1.75,2.16,1.68,–,–
NC(Cc1cccc([N+](=O)[O-])c1)C(=O)O (centres undefined),> 100,> 100,> 100,> 100,> 100,–,> 100,–,> 100,–,> 100,–,–,–,–,–,–,–,–,–
O=C(OC(=O)n1ccc2ccccc21)n1ccc2ccccc21,> 100,> 100,> 100,> 100,–,> 100,–,> 100,> 100,–,> 100,–,–,–,–,–,–,–,–,–
NCCCNc1nc2ccccc2c2c(=O)c3cc(OC(F)(F)F)ccc3sc12,–,3.25,–,–,2.96,–,3.74,–,3.15,–,–,1.71,–,–,2.14,1.59,–,1.68,–,–
C=CC(Br)(CBr)CCC(Cl)C(C)C (centres undefined),3.07,1.52,–,4.13,3.5,–,3.5,–,3.84,–,5.97,–,–,–,–,–,–,–,–,–
CCC[CH2][Ge]([CH2]CCC)([CH2]CCC)[O]C(=O)CC(=O)c1ccccc1,–,6.16,> 100,17.6,–,22.7,21,13.4,6.17,–,–,1.3,0.959,2.63,7.03,–,–,1.57,10.8,0.752
O=NN(CCCl)C(=O)NC1CCSc2ccccc21 (centres undefined),> 100,> 100,> 100,> 100,–,> 100,–,> 100,> 74.5,–,> 100,–,–,–,–,–,–,–,–,–
CC(=O)Oc1cccc2c(/C=N/NC(N)=S)ncc(C)c12,3.32,18.9,24.5,32.3,> 45.9,–,22,–,1.98,–,> 41.2,–,–,–,–,–,–,–,–,–
Cc1cc(=O)[nH]c(NN2C(Cl)C(=O)C2c2cccc(O)c2)n1 (centres undefined),–,> 100,> 100,27.4,–,> 100,> 100,> 100,31.6,–,> 100,–,–,–,–,–,–,–,–,–
Cc1ccc2c(n1)C(=O)c1[nH]c3ccccc3c1C2=O,2.63,6.37,12.3,5.72,2.94,–,> 100,–,5.11,0.586,2.05,1.88,2.25,1.26,12,1.59,0.513,2.15,–,–
O=[N+]([O-])c1ccc(C=C2C(Cl)=C(Cl)C(Cl)=C2Cl)cc1,10.9,–,5.16,3.46,–,–,7.58,–,7.09,2.78,–,–,1.84,1.83,2.41,–,–,2.54,–,–
NNC(N)Nc1ccccc1 (centres undefined),> 100,> 100,–,> 100,> 100,–,> 100,–,> 100,–,> 100,–,–,–,–,–,–,–,–,–
